The values that follow are results of earlier work, collected in patent US20060115514A1, “Chelating and binding chemicals to a medical implant, medical device formed, and therapeutic applications” (priority 2004, published 2006).

Series [1] has as its system neointimal formation after balloon injury. The conditions noted are these: after balloon injury in rats.
The subject of series [2] is restenosis. The conditions noted are these: oral administration.

On to `N=C(N)c1ccc2cc(OC(=O)c3ccc(N=C(N)N)cc3)ccc2c1` [FUT-175], for which the neointimal formation entry in series [1] is given as “inhibits”.

Take `CO[C@H]1C[C@@H]2CC[C@@H](C)[C@@](O)(O2)C(=O)C(=O)N2CCCC[C@H]2C(=O)O[C@H]([C@H](C)C[C@@H]2CC[C@@H](O)[C@H](OC)C2)CC(=O)[C@H](C)/C=C(\C)[C@@H](O)[C@@H](OC)C(=O)[C@H](C)C[C@H](C)/C=C/C=C/C=C/1C` [sirolimus]: the “incidence of adverse events” value in series [2] was “higher incidence of adverse events”.
